The text below walks through data of patent US7220773B2, “Pyrrole derivative” (Dainippon Sumitomo Pharma Co., Ltd., priority 2001, dated 2007).

One experiment has as its system male db/db mice. Kind of experiment: Hypoglycemic activity in db/db mice, oral administration once a day for 2 weeks. It counts as in vivo. As to conditions: Mus musculus, po, 336 h, dosage 30 mg/kg orally once a day for 2 weeks in 0.5% carboxymethyl cellulose, male db/db mice (7 to 8 weeks old), versus vehicle on last day. The protocol:
The test compounds described in Examples (these compound were made into a free form from a salt form, a sodium salt or calcium salt, if necessary) were dissolved or suspended in 0.5% carboxymethyl cellulose solution. Mice were forced to orally administer the test compound as to administer the total amount of 30 mg/kg or 100 mg/kg to male db/db mice (7 to 8 weeks old) once a day for 2 weeks. On last day, to the blood just taken from tail vein was added perchloric acid to remove proteins and then the blood sugar was measure by glucose CII Test Waco (Wako Pure Chemical Ind.). Hypoglycemic activity was calculated as following formula: [formula] • A: Blood sugar level of Vehicle (on last day) • B: Blood sugar level of test compound-administered group (on last day)
Consider `COc1cccc(C(=O)c2cccn2C/C=C/c2cccc(OC(C)C(=O)O)c2)c1` (stereo not drawn) [Example 63], for which the inhibition in vivo at 30 mg/kg amounted to 19%.
The same measure, in the same setting: to `CCc1ccc(C(=O)c2cccn2C/C=C/c2cccc(O[C@@H](C)C(=O)O)c2)cc1` [Example 91] belongs 55%; to `C[C@H](Oc1cccc(/C=C/Cn2cccc2C(=O)c2ccc3c(c2)OCO3)c1)C(=O)O` [Example 92], 46%; to `Cc1ccc(C(=O)c2cccn2C/C=C/c2cccc([C@@H](C)C(=O)O)c2)cc1` [Example 110], 17%.
As for `Cc1ccc(C(=O)c2cccn2C/C=C/c2cccc([C@H](C)C(=O)O)c2)cc1` [Example 111], the inhibition in vivo at 30 mg/kg is 61%.
As to `Cc1ccc(C(=O)c2cccn2C/C=C/c2cccc(SC(C)C(=O)O)c2)cc1` (stereo not drawn) [Example 126], the inhibition in vivo at 30 mg/kg came out at 56%.
`CC(Oc1cccc(/C=C/Cn2cccc2C(=O)c2ccc(C(F)(F)F)cc2)c1)C(=O)O` (stereo not drawn) [Example 143] showed an inhibition in vivo at 30 mg/kg of 21%.
On the same count and under the same terms, the result for `CC(Oc1cccc(/C=C/Cn2cccc2C(=O)c2cccc(Oc3ccc(C(F)(F)F)cc3)c2)c1)C(=O)O` (stereo not drawn) [Example 155] reads 57%; that for `COc1ccc(C(=O)c2cc(C)cn2C/C=C/c2cccc(O[C@@H](C)C(=O)O)c2)cc1` [Example 158], 24%; that for `CC(Oc1cccc(/C=C/Cn2cccc2C(=O)Nc2ccc(OC(F)(F)F)cc2)c1)C(=O)O` (stereo not drawn) [Example 179], 22%.
Same read-out and setting: to `C[C@H](Oc1cccc(/C=C/Cn2cccc2C(=O)c2ccc3c(c2)CCO3)c1)C(=O)O` [Example 186] belongs 44%.
The same measure, in the same setting: to `Cc1ccc(CC(=O)c2cccn2C/C=C/c2cccc(O[C@@H](C)C(=O)O)c2)cc1` [Example 191] belongs 15%.

The experiment is the same for the next values; noted with them: Mus musculus, po, 336 h, dosage 100 mg/kg orally once a day for 2 weeks in 0.5% carboxymethyl cellulose, male db/db mice (7 to 8 weeks old), versus vehicle on last day.
With `Cc1ccc(C(=O)c2cccn2C/C=C/c2cccc(C(C)(C)C(=O)O)c2)cc1` [Example 39], the inhibition in vivo at 100 mg/kg is 65%.
The same measure, in the same setting: to `O=C(O)COc1cccc(/C=C/Cn2cccc2C(=O)c2ccc(Cl)cc2)c1` [Example 53] belongs 23%; to `Cc1ccc(C(=O)c2ccn(C/C=C/c3cccc(SC(C)C(=O)O)c3)c2)cc1` (stereo not drawn) [Example 128], 27%.
On the same count and under the same terms, the result for `Cc1ccc(NC(=O)c2cccn2C/C=C/c2cccc(SCC(=O)O)c2)cc1` [Example 135] reads 16%; that for `Cc1ccc(C(=O)c2cccn2C/C=C/c2cccc(O[C@H](C)C(=O)O)c2)cc1` [Example 139], 55%.
Still for that read-out and setting: to `Cc1ccc(C(=O)c2cccn2C/C=C/c2cccc(O[C@@H](C)C(=O)O)c2)cc1` [Example 142] belongs 55%.
Turning to `CCC(Cc1cccc(/C=C/Cn2cccc2C(=O)c2ccc(C)cc2)c1)C(=O)O` (stereo not drawn) [Example 165], 100 mg/kg produced 68% inhibition in vivo.
On the same count and under the same terms, to `COc1ccccc1NC(=O)c1cccn1C/C=C/c1cccc(SCC(=O)O)c1` [Example 171] belongs 20%.

The same experiment, now with this note: dosage 30 mg/kg orally once a day for 2 weeks in 0.5% carboxymethyl cellulose, male db/db mice (7 to 8 weeks old), versus vehicle on last day.
As for `Cc1ccc(CC(=O)c2cccn2C/C=C/c2cccc(O[C@@H](C)C(=O)O)c2)cc1` [Example 201], the “Hypoglycemic activity(%)” value amounted to 18%.

Broadly, the inhibition in vivo is the percentage by which the read-out fell short of the control. Higher therefore signals strong suppression.
